Results from PubChem BioAssay (NCI).
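A five-concentration, 48-hour dose response in 96-well plates underlies each endpoint, interpolated linearly between surrounding concentrations. TGI: concentration producing complete growth inhibition.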

What was measured:
Experiment in all cases: NCI anticancer screen, dose series, 48 h
[1] = test system: NCI-H23 lung
[2] = test system: NCI-H522 lung
[3] = test system: HOP-18 NSCLC
[4] = test system: UO-31 renal
[5] = test system: M19-MEL melanoma
[6] = test system: HOP-62 NSCLC
[7] = test system: ACHN renal
[8] = test system: NCI-H226 lung
[9] = test system: SW-620 colon
[10] = test system: KM12 colon
[11] = test system: SK-MEL-5 melanoma
[12] = test system: UACC-257 melanoma
[13] = test system: RXF 393 renal
[14] = test system: CCRF-CEM leukemia
[15] = test system: DMS 273 small cell lung
[16] = test system: LXFL 529 NSCLC
[17] = test system: HCC-2998 colon
[18] = test system: OVCAR-4 ovarian
[19] = test system: SR leukemia
[20] = test system: NCI-H460 lung
[21] = test system: OVCAR-3 ovarian
[22] = test system: SK-MEL-28 melanoma
[23] = test system: 786-0 renal
[24] = test system: DMS 114 small cell lung
[25] = test system: CAKI-1 renal
[26] = test system: MOLT-4 leukemia
[27] = test system: LOX IMVI melanoma
[28] = test system: HCT-15 colon
[29] = test system: SNB-75 CNS
[30] = test system: OVCAR-8 ovarian
[31] = test system: DLD-1 colon
[32] = test system: HOP-92 NSCLC
[33] = test system: SN12C renal
[34] = test system: A498 renal
[35] = test system: IGROV1 ovarian
[36] = test system: K-562 leukemia
[37] = test system: KM20L2 colon
[38] = test system: COLO 205 colon
[39] = test system: HCT-116 colon
[40] = test system: M14 melanoma
[41] = test system: SF-268 CNS
[42] = test system: U251 CNS
[43] = test system: A549 NSCLC
[44] = test system: OVCAR-5 ovarian
[45] = test system: RPMI-8226 leukemia
[46] = test system: HT29 colon
[47] = test system: UACC-62 melanoma
[48] = test system: SK-OV-3 ovarian
[49] = test system: SK-MEL-2 melanoma
[50] = test system: SNB-78 CNS
[51] = test system: SF-295 CNS
[52] = test system: SF-539 CNS
[53] = test system: TK-10 renal

COc1ccccc1/C=C(\C#N)c1ccccc1
TGI [1]: > 100 µM | TGI [2]: 44.7 µM | TGI [3]: > 100 µM | TGI [4]: 97.5 µM | TGI [5]: > 100 µM | TGI [6]: > 100 µM | TGI [7]: > 100 µM | TGI [8]: > 100 µM | TGI [9]: > 100 µM | TGI [10]: > 100 µM | TGI [11]: 40.9 µM | TGI [12]: > 100 µM | TGI [13]: 69.3 µM | TGI [14]: 55.2 µM | TGI [15]: 50 µM | TGI [16]: > 100 µM | TGI [17]: > 100 µM | TGI [18]: > 100 µM | TGI [19]: 48.8 µM | TGI [20]: 74.1 µM | TGI [21]: 51.2 µM | TGI [22]: > 100 µM | TGI [23]: 42.5 µM | TGI [24]: 46.2 µM | TGI [25]: > 100 µM | TGI [26]: 97.3 µM | TGI [27]: > 100 µM | TGI [28]: 67.4 µM | TGI [29]: 60 µM | TGI [30]: > 100 µM | TGI [31]: > 100 µM | TGI [32]: > 100 µM | TGI [33]: > 100 µM | TGI [34]: 66.1 µM | TGI [35]: > 100 µM | TGI [36]: 33.8 µM | TGI [37]: > 100 µM | TGI [38]: 32.4 µM | TGI [39]: > 100 µM | TGI [40]: 99.4 µM | TGI [41]: > 100 µM | TGI [42]: > 100 µM | TGI [43]: > 100 µM | TGI [44]: > 100 µM | TGI [45]: > 100 µM | TGI [46]: > 100 µM | TGI [47]: > 100 µM | TGI [48]: 84.3 µM | TGI [49]: 94.8 µM | TGI [50]: > 100 µM | TGI [51]: > 100 µM | TGI [52]: > 100 µM | TGI [53]: 95.6 µM
